Blank lines part the entries; values can stand above or below the compound they belong to. Activity calls are given as the source filed them.
How the values were obtained:
[1] = reduction of Shn3 3'UTR-driven luciferase in osteoblasts – cell-based, Clone20 osteoblasts, firefly luciferase, cherry-picked, dose response (AID 624132); format: functional;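 note: firefly luciferase luminescence from reporter carrying the Shn3 3'UTR in osteoblasts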
[2] = loss of viability in HepG2 cells – cell-based, CellTiter-Glo, cherry-picked, cytotoxicity control for Shn3 inhibitor project, dose response (AID 624134); format: functional
[3] = non-specific 3'UTR reporter inhibition in Clone20-Shn3RL – cell-based, Renilla luciferase, cherry-picked, counter-screen for Shn3 inhibitor project, dose response (AID 624133); format: functional
[4] = target: T1, High affinity choline transporter 1 (Homo sapiens, UniProt Q9GZV3); experiment: human choline transporter potentiators, potency – cell-based, 10-point CRC, membrane potential dye, dose response (AID 602376); format: functional
T1 sequence (Q9GZV3 whole entry): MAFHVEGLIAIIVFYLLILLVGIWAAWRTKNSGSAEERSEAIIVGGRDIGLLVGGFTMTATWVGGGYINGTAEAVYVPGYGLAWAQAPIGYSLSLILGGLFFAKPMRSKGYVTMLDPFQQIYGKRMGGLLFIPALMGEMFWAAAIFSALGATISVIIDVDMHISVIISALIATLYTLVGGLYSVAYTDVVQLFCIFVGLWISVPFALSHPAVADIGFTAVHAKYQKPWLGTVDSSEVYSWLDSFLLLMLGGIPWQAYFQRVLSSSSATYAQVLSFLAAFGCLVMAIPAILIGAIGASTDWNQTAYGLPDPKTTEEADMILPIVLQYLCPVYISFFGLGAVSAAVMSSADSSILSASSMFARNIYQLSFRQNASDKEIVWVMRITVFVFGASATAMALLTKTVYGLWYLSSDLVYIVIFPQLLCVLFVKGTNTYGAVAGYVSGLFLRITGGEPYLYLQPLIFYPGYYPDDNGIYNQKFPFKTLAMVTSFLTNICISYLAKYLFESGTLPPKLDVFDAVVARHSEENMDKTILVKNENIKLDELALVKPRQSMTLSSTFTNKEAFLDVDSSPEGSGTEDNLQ

[5] = test system: HEK293; experiment: inhibition of NOD1-driven NF-kB reporter – cell-based, luminescence, uHTS, primary screen (AID 1578); format: functional; details: Homo sapiens
[6] = test system: HEK293; experiment: cells; format: functional, cell-based; details: Homo sapiens
[7] = test system: HEK293; experiment: cells; format: functional, cell-based; details: Homo sapiens; remark: listed apart in the source
[8] = test system: HEK293; experiment: NOD2 signaling inhibitors in MDP-stimulated cells, cell-based, uHTS, luminescence (AID 2001); format: functional; details: Homo sapiens
[9] = test system: HEK293; experiment: cells; format: functional, cell-based; details: Homo sapiens; remark: listed apart in the source
[10] = test system: HEK293; experiment: cells; details: Homo sapiens
[11] = target: Dual specificity protein kinase CLK1 (Homo sapiens, UniProt P49759); experiment: inhibition of human CLK1 activity – biochemical, cherry-picked samples, selectivity assay for Dyrk1A inhibitor project, dose response (AID 588811)
[12] = test system: Escherichia coli; experiment: microbe, parasite or virus in culture
[13] = target: T2, Mannose-6-phosphate isomerase (Homo sapiens, UniProt P34949); experiment: MPI enzyme activity inhibition – biochemical, fluorescence intensity, coupled assay, primary screen (AID 1209)
T2 sequence (P34949 whole entry): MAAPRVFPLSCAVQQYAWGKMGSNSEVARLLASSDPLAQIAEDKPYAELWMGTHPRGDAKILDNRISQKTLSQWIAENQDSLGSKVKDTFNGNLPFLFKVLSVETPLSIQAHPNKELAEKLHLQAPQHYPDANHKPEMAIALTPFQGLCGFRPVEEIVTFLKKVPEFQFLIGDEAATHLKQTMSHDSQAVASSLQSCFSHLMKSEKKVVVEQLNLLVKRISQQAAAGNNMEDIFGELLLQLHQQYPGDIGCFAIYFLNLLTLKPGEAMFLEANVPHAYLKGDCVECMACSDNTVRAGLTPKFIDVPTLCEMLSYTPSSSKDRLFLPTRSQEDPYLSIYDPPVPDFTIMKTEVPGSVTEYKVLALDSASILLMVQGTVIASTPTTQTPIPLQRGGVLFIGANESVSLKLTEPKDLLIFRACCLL

[14] = target: T2, Mannose-6-phosphate isomerase; experiment: phosphomannose isomerase inhibition – biochemical, fluorescence intensity, confirmation (AID 1535)
[15] = target: T3, Phosphomannomutase 2 (Homo sapiens, UniProt O15305); experiment: Counter screen SAR assay for PMM2 inhibitors via a fluorescence intensity assay. [Related pubchem assays (depositor defined):AID1545, AID1574]
T3 sequence (O15305 whole entry): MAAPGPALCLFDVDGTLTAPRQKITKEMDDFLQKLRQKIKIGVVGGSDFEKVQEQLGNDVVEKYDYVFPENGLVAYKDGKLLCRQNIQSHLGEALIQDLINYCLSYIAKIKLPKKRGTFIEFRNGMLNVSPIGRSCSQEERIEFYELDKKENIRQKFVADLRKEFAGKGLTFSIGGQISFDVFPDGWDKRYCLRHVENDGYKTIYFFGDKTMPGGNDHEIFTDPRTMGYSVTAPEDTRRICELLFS

[16] = target: Intestinal-type alkaline phosphatase (Mus musculus, UniProt P24822); experiment: PubChem AID 488785; format: functional
[17] = target: T4, Alkaline phosphatase, tissue-nonspecific isozyme (Homo sapiens, UniProt P05186); experiment: TNAP enzyme inhibition by screening hits, dose response, selectivity assay for mouse IAP inhibitor project, biochemical, human TNAP, uHTS hits (AID 488906); format: functional
T4 sequence (P05186 whole entry): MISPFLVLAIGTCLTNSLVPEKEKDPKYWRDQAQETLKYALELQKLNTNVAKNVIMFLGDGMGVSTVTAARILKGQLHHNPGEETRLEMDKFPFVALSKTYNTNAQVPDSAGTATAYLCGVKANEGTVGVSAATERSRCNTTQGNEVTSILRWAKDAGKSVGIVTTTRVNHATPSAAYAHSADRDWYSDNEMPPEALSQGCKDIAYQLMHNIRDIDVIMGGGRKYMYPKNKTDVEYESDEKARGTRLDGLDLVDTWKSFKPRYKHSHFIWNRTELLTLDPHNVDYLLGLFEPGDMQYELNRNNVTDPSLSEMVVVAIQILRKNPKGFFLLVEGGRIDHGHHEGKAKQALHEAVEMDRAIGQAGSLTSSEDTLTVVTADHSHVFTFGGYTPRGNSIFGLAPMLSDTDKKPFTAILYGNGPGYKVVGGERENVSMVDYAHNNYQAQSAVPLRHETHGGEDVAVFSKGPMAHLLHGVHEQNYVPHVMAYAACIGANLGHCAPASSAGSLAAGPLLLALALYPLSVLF

[18] = target: Intestinal-type alkaline phosphatase (Homo sapiens, UniProt P09923); experiment: inhibition of human intestinal alkaline phosphatase – biochemical, dose response (AID 488876); format: functional
Intestinal-type alkaline phosphatase (Homo sapiens, UniProt P09923), sequence (P09923 whole entry): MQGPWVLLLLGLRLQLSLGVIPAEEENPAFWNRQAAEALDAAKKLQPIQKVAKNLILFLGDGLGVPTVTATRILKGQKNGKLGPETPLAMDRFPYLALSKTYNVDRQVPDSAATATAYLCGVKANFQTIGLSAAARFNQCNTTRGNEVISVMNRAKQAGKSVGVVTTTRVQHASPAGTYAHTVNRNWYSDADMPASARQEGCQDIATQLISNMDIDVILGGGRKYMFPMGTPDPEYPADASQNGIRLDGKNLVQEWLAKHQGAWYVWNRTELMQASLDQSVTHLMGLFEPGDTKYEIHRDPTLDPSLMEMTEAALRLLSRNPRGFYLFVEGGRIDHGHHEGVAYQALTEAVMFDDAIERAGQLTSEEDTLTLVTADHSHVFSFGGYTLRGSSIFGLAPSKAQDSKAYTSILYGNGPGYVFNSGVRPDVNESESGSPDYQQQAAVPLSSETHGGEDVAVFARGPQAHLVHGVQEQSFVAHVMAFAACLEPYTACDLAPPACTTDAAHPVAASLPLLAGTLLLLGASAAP

Dual specificity protein kinase CLK1, sequence (P49759 whole entry): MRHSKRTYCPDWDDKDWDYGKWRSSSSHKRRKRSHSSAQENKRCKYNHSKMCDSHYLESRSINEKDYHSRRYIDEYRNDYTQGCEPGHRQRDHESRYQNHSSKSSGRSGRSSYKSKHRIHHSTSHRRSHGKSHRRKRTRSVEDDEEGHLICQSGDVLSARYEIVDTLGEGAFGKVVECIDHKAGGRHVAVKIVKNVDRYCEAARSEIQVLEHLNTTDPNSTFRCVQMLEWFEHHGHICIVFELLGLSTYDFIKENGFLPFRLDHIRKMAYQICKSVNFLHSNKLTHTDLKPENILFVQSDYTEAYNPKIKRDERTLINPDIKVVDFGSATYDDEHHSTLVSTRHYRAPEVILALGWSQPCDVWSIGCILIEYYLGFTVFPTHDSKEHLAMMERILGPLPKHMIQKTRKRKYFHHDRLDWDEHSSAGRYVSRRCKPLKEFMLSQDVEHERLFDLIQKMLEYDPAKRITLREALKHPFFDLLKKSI
Intestinal-type alkaline phosphatase (Mus musculus, UniProt P24822), sequence (P24822 whole entry): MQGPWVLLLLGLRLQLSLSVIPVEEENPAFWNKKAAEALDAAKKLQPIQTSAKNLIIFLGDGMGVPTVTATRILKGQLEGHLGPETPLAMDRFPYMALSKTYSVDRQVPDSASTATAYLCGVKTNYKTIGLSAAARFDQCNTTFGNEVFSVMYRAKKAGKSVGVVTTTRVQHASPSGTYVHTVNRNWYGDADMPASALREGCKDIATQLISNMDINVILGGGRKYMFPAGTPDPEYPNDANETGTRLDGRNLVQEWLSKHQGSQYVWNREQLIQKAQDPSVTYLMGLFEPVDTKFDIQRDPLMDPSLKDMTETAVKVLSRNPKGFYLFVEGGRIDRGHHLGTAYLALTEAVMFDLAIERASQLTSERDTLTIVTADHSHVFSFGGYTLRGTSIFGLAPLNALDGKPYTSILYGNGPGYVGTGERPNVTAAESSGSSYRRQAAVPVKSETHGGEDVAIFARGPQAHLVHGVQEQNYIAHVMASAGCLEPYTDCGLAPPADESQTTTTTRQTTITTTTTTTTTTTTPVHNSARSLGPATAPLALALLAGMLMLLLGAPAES

SMILES: CCN(CC)CCn1c(=N)n(CC(O)COc2cccc(C)c2)c2ccccc21 (centres undefined)
- AC50 [1]: 4.39 µM (active)
- AC50 [2]: 21.2 µM (active)
- AC50 [3]: 7.45 µM (active)
- EC50 [4]: 12.4 µM (active)

SMILES: Cc1oc(-c2ccccc2Cl)nc1CSc1nc(O)c2c(n1)CCCC2
- EC50 [5]: 8.45 µM (active)
- IC50 [6]: 19.5 µM (active)
- IC50 [7]: > 20 µM (inactive)
- IC50 [8]: 7.49 µM (active)
- IC50 [9]: > 20 µM (inactive)
- IC50 [10]: > 20 µM (inactive)

- AC50 [11]: 0.00994 µM (active)
SMILES: Cc1ccsc1CNc1ncnc2ccc(-c3ccc4c(c3)OCO4)cc12

SMILES: Cc1ccc(C(=O)N2CCCC(CCC(=O)NCc3ccc(F)c(F)c3)C2)cn1 (centres undefined)
- AC50 [12]: 33.1 µM (active)

- AC50 [11]: 0.0113 µM (active)
SMILES: c1nc(NCC2CCCO2)c2cc(-c3ccc4c(c3)OCO4)ccc2n1 (centres undefined)

- IC50 [13]: 12.7 µM (active)
- IC50 [14]: > 50 µM (inactive)
- IC50 [15]: > 100 µM (inactive)
- IC50 [16]: 0.373 µM (active)
- IC50 [17]: 8.85 µM (active)
- IC50 [18]: 7.33 µM (active)
SMILES: O=C(CSc1nc[nH]n1)CSc1nc[nH]n1
